GI50 and TGI data for 9 compounds are collected here from PubChem BioAssay (NCI).

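Cultured in 96-well plates, cells were exposed to test compound for 48 hours across five concentrations. GI50 = concentration required for 50% inhibition of growth. TGI is the concentration that stops growth completely.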 Some results are limits rather than exact numbers.

Test systems include CAKI-1 renal; HCT-116 colon; KM12 colon; MOLT-4 leukemia; NCI-H226 lung; NCI/ADR-RES ovarian; PC-3 prostate; SF-295 CNS; SNB-75 CNS; UACC-257 melanoma.
Assay in all cases: NCI tumour cell line growth inhibition, 48 h

Regarding `COc1ccc2c(c1)N(CCO)C1=C(C(=O)OC1)C2c1cccc(Br)c1` (stereo unspecified), the GI50 was 0.0395 µM with CAKI-1 renal; 0.05 µM in the assay on HCT-116 colon; 0.0489 µM in the assay on KM12 colon; 0.458 µM with MOLT-4 leukemia; 0.175 µM with NCI-H226 lung; 0.0397 µM in the assay with NCI/ADR-RES ovarian. The GI50 in the assay on PC-3 prostate was 0.0618 µM; with SF-295 CNS, 0.0319 µM; with SNB-75 CNS, 0.0647 µM; with UACC-257 melanoma it was 0.034 µM. The TGI in the assay on CAKI-1 renal was 35.6 µM; in the assay on HCT-116 colon, 2.88 µM; in the assay on KM12 colon it was 5.05 µM; in the assay on MOLT-4 leukemia, above 100 µM; with NCI-H226 lung it was 2.56 µM; with NCI/ADR-RES ovarian it was 0.223 µM. The TGI in the assay with PC-3 prostate was 54.4 µM; with SF-295 CNS, 1.52 µM; in the assay with SNB-75 CNS, above 100 µM; in the assay with UACC-257 melanoma it was 40.7 µM.

Consider `NS(=O)(=O)c1ccc(NCc2cnc3ccccc3c2)cc1`, for which the TGI with CAKI-1 renal, with HCT-116 colon, in the assay with KM12 colon, in the assay with MOLT-4 leukemia, in the assay with NCI-H226 lung and in the assay on NCI/ADR-RES ovarian was above 100 µM each time. The TGI in the assay on PC-3 prostate, in the assay on SF-295 CNS, in the assay on SNB-75 CNS and in the assay with UACC-257 melanoma was above 100 µM throughout.

Regarding `O=C1[C@H](c2ccccc2)C2c3ccccc3CCN12` (stereo partly specified), the GI50 with CAKI-1 renal, in the assay on HCT-116 colon, with KM12 colon, in the assay on MOLT-4 leukemia, in the assay with NCI-H226 lung and in the assay with NCI/ADR-RES ovarian was above 100 µM each time. Also, the GI50 in the assay with PC-3 prostate, with SF-295 CNS and in the assay on UACC-257 melanoma was above 100 µM each time. The TGI in the assay on CAKI-1 renal, in the assay on HCT-116 colon, in the assay with KM12 colon, with MOLT-4 leukemia, in the assay with NCI-H226 lung and in the assay on NCI/ADR-RES ovarian was above 100 µM in each case. Further, the TGI with PC-3 prostate, with SF-295 CNS, in the assay with SNB-75 CNS and with UACC-257 melanoma was above 100 µM throughout.

As for `Cc1cc(NC(=O)C(=O)Cc2nc3ccccc3s2)ccc1Cl`, the TGI with CAKI-1 renal, in the assay on HCT-116 colon, with KM12 colon, in the assay with MOLT-4 leukemia, in the assay on NCI-H226 lung and in the assay with NCI/ADR-RES ovarian was above 100 µM throughout. The TGI in the assay with PC-3 prostate, in the assay with SF-295 CNS, in the assay with SNB-75 CNS and in the assay with UACC-257 melanoma was above 100 µM each time.

Take `OCCCNC(=S)Nc1ccc(-c2nc3ccccc3s2)cc1`: the GI50 in the assay on CAKI-1 renal is 14.3 µM; with HCT-116 colon, 19.9 µM; in the assay with KM12 colon, 17.8 µM; in the assay on MOLT-4 leukemia it was 16.7 µM; in the assay on NCI-H226 lung, 18.5 µM; in the assay on NCI/ADR-RES ovarian, 25.2 µM. For the same compound, the GI50 is 27.7 µM in the assay with PC-3 prostate, 14.8 µM with SF-295 CNS, 18.8 µM in the assay on SNB-75 CNS and 27.1 µM in the assay on UACC-257 melanoma. In addition, the TGI is 40.6 µM in the assay on CAKI-1 renal; 46.2 µM with HCT-116 colon; 46.9 µM in the assay with KM12 colon; above 100 µM in the assay on MOLT-4 leukemia; 49.6 µM in the assay with NCI-H226 lung; 66.6 µM in the assay with NCI/ADR-RES ovarian. The TGI in the assay on PC-3 prostate is above 100 µM; in the assay with SF-295 CNS it was 45 µM; in the assay with SNB-75 CNS, 78.8 µM; with UACC-257 melanoma, 51.9 µM.

In the case of `O=C(Nc1ncc(Cc2ccc(Cl)cc2)s1)c1ccc2c(c1)OCCO2`, the GI50 was 0.0547 µM with CAKI-1 renal; 0.0419 µM in the assay with HCT-116 colon; 0.0414 µM in the assay with KM12 colon; 0.0877 µM in the assay on MOLT-4 leukemia; 0.358 µM with NCI-H226 lung; 0.0393 µM in the assay on NCI/ADR-RES ovarian. Further, the GI50 was 0.047 µM in the assay with PC-3 prostate, 0.0424 µM with SF-295 CNS, 0.0266 µM in the assay with SNB-75 CNS and 5.8 µM in the assay with UACC-257 melanoma. The TGI in the assay on CAKI-1 renal is 39 µM; in the assay with HCT-116 colon it was above 100 µM; with KM12 colon, above 58 µM; in the assay on MOLT-4 leukemia it was above 100 µM; in the assay on NCI/ADR-RES ovarian, 5.58 µM; in the assay with PC-3 prostate, above 100 µM. The values for the TGI in the assay with SF-295 CNS, in the assay on SNB-75 CNS and with UACC-257 melanoma were 2.02 µM, 3.4 µM and above 100 µM, respectively.

With `COc1ccc2cc(C(=O)/C=C/c3ccccc3OC)ccc2c1`, the GI50 in the assay with CAKI-1 renal was 0.862 µM; with HCT-116 colon it was 1.4 µM; in the assay with KM12 colon, 1.6 µM; in the assay with MOLT-4 leukemia it was 1.26 µM; in the assay on NCI-H226 lung, 3.24 µM; in the assay with NCI/ADR-RES ovarian it was 3.19 µM. The GI50 is 2.62 µM with PC-3 prostate, 1.59 µM in the assay with SF-295 CNS, 4.06 µM with SNB-75 CNS and 9.78 µM in the assay on UACC-257 melanoma. Further, the TGI was 4.88 µM in the assay with CAKI-1 renal; 6.5 µM with HCT-116 colon; 9.51 µM in the assay with KM12 colon; 9.45 µM in the assay on MOLT-4 leukemia; 18.7 µM in the assay on NCI-H226 lung; above 37.4 µM in the assay with NCI/ADR-RES ovarian. Further, the TGI with PC-3 prostate was 23.1 µM; with SF-295 CNS, 7.2 µM; in the assay with SNB-75 CNS, above 51.6 µM; in the assay on UACC-257 melanoma, 27.9 µM.

Consider `CCCNNC(=O)c1ccc(CNC(=O)/C=C/c2ccccc2)cc1`, for which the GI50 was 0.174 µM in the assay on CAKI-1 renal; 0.0547 µM in the assay on HCT-116 colon; 0.232 µM in the assay on KM12 colon; 0.106 µM with MOLT-4 leukemia; 0.314 µM in the assay on NCI-H226 lung; 0.111 µM with NCI/ADR-RES ovarian. In addition, the GI50 was 0.173 µM in the assay on PC-3 prostate, 0.164 µM in the assay on SF-295 CNS, 0.311 µM with SNB-75 CNS and 0.15 µM with UACC-257 melanoma. Moreover, the TGI was 0.733 µM with CAKI-1 renal; 0.527 µM with HCT-116 colon; 5.05 µM with KM12 colon; above 100 µM in the assay with MOLT-4 leukemia; 2.58 µM with NCI-H226 lung; above 100 µM with PC-3 prostate. The TGI in the assay with SF-295 CNS is 0.596 µM; with SNB-75 CNS, above 23.5 µM.

Regarding `COc1ccc(/C=C2\CCCC3=C2N=C2SC=NN2C3c2ccc(OC)c(OC)c2)cc1OC` (stereo unspecified), the GI50 is 7.43 µM with CAKI-1 renal; 4.79 µM in the assay on HCT-116 colon; 11.8 µM in the assay on KM12 colon; 21.4 µM in the assay on MOLT-4 leukemia; 18.5 µM in the assay on NCI-H226 lung; 18.2 µM with NCI/ADR-RES ovarian. The GI50 in the assay on PC-3 prostate is 37.8 µM; with SF-295 CNS it was 32.7 µM; in the assay with SNB-75 CNS it was 9.38 µM; with UACC-257 melanoma, 10.5 µM. Moreover, the TGI in the assay on CAKI-1 renal is above 100 µM; in the assay with HCT-116 colon, 32.5 µM; with KM12 colon it was above 100 µM; with MOLT-4 leukemia, above 100 µM; with NCI-H226 lung it was 89.2 µM; in the assay with NCI/ADR-RES ovarian, above 100 µM. Also, the TGI with PC-3 prostate is above 100 µM; in the assay with SF-295 CNS it was above 100 µM; with SNB-75 CNS, 44.1 µM; in the assay on UACC-257 melanoma, above 100 µM.
